Measured values: patent publication US20240052028A1, “ENHANCEMENT OF ANTI-TUMOR PHAGOCYTOSIS” (The Board of Trustees of the Leland Stanford Junior …, priority 2020, published 2024)

Key:
Assay type in all cases: cell-based, mouse
Safe^KO Ramos cells = test: Time-lapse phagocytosis assay, uptake of pHrodo-labeled Safe^KO Ramos cells by J774 macrophages with anti-CD20 antibodies and GPR84 agonists; details: anti-CD20 antibodies, GPR84 agonist added (FIG. 4D)
Method: (§1) Time-lapse microscopy assay for phagocytosis J774 cells were lifted by scraping, counted, and plated in 24 well tissue culture plates at a density of 100,000 cells per well in 0.5 ml media 48 h prior to the start of the experiment. At 24 h after plating, media was aspirated and replaced with fresh media containing 10 ng ml^−1 lipopolysaccharide (LPS) (Sigma). On the day of the experiment, target cells that had been transduced with sgRNAs, co-expressed with GFP and PuroR, and selected with puromycin as described above, were lifted, pelleted, and counted. Cells were washed three times in dPBS, incubated in dPBS containing 6.6 ng ml-1 pHrodo-Red succinimidyl ester (Thermo Fisher) at a cell concentration of 1M ml^−1 for 30 minutes, washed once, and resuspended in DMEM supplemented with 2 mM glutamine, 100 units ml^−1 penicillin, […] streptomycin and 10% heat-inactivated FCS, and containing anti-CD20, anti-CD30, and/or anti-CD47 antibodies, as indicated, at a cell concentration of 1M ml^−1. 220 μl of cell suspensions was added to each well. Plates were transferred to an incubator and imaged every 30 or 60 minutes using an Incucyte (Essen). Total red intensity for each well, averaged over 16 images per well, was calculated after applying a threshold for red intensity that excluded most or all cells at the first time point using top-hat background subtraction. Reported values represent the mean total red fluorescence intensity at each timepoint, minus the total red fluorescence at the initial timepoint (to remove signal from occasional autofluorescent debris), normalized to the initial total green fluorescence signal (to account for small variations in target cell density), of duplicate, triplicate, or quadruplicate wells, as indicated in the legend. […]

APMAP^KO Ramos cells = test: Time-lapse phagocytosis assay, uptake of pHrodo-labeled APMAP^KO Ramos cells by J774 macrophages with anti-CD20 antibodies and GPR84 agonists; details: at high concentrations of agonist, anti-CD20 antibodies (FIG. 12C)
Method: as §1

[1] = system: Ramos Burkitt lymphoma cells; test: ADCP of Ramos Burkitt lymphoma cells by LPS-activated J774 macrophages; details: in the presence of LPS-activated J774 macrophages
Method: For the screens, cells were split into two conditions, each in duplicate: an untreated control group and ADCP treated group. In the ADCP group, for each round of treatment, Ramos cells were incubated with J774 macrophages, which had been seeded into 15 cm plates 48 h prior (at 5 M cells per plate) and treated with LPS (10 ng ml^−1) starting 24 h prior, in the presence of anti-CD20 antibodies (50 ng ml^−1) (CRISPRko screen) or both anti-CD20 antibodies (50 ng ml^−1) and anti-CD47 antibodies (100 ng ml-1) (CRISPRa screen). 25 M Ramos cells were added to each plate and incubated with J774 macrophages for 24 h, and were then removed from the macrophage-containing plates via two rounds of washing with complete RPMI media. Ramos cells were then allowed to recover in T-150 flasks for 24-72 h before the next round of treatment. At the end of the screen, 300 million cells were recovered from each condition and pelleted by centrifugation. […] The sgRNA sequences were amplified and sequenced using an Illumina NextSeq with ˜40 million reads per condition; ˜200× coverage per library element). […]
To establish a scalable platform for genetic screening for regulators of ADCP, conditions for antibody-stimulated uptake of cancer cells by macrophage cell lines were optimized, which, unlike primary macrophages, can readily be cultured at the ultra-high scales necessary for screening. […]

Molecule	antibody-dependent phagocytosis of Safe^KO cells (Safe^KO Ramos cells)	uptake of APMAP^KO cells (APMAP^KO Ramos cells)	phagocytosis of Ramos cells [1]
CCCCCCCCCC(=O)O [capric acid]	stimulated	inhibited	–
CCCCCCSc1nc(O)cc(=O)[nH]1 [ZQ-16]	stimulated	inhibited	–
rituximab-biosimilar anti-CD20 antibodies: rituximab-biosimilar anti-CD20 antibodies used to drive ADCP	–	–	high rates of phagocytosis
CCCCCCCCNc1cc(=O)[nH]c(=O)[nH]1 [6-OAU, (octylamino) pyrimidine-2,4(1H,3H)-dione]	stimulated	inhibited	–
